Values after ≈ are worked out from the molar mass of the structure shown. Counter-ions that a name gives are not always drawn.
Key:
[1] = Solubility in water, buffer or urine
[2] = Solid stability at elevated temperatures
[3] = Stability of aqueous solutions at room temperature (loss of activity)
physchem = conditions: solid
S. aureus [4] = experiment: M.I.C. by Tube Dilution in Nutrient Broth (Examples 1 and 2); format: cell-based; conditions: Staphylococcus aureus
Excerpt: (§1) | **Dilution of overnight broth culture

E. coli [5] = experiment: as above; format: cell-based; conditions: Escherichia coli
Excerpt: as §1

Ps. aeruginosa = experiment: as above; format: cell-based; conditions: Pseudomonas aeruginosa; read-out: M.I.C.
Excerpt: as §1

K. pneumoniae [6] = experiment: as above; format: cell-based; conditions: Klebsiella pneumoniae
Excerpt: as §1

Pr. mirabilis = experiment: as above; format: cell-based; conditions: Proteus mirabilis; Pr. mirabilis A9900 (10^-4)
Excerpt: as §1

Ent. cloacae = experiment: as above; format: cell-based; conditions: Enterobacter cloacae
Excerpt: as §1

Pr. morganii = experiment: as above; format: cell-based; conditions: Morganella morganii; Pr. morganii A15153 (10^-4)
Excerpt: as §1

Ser. marcescens = experiment: as above; format: cell-based; conditions: Serratia marcescens; Ser. marcescens A20019 (10^-4)
Excerpt: as §1

Sal. enteritidis = experiment: as above; format: cell-based; conditions: Salmonella enterica; Sal. enteritidis A9531 (10 ^4)
Excerpt: as §1

Str. pneumoniae = experiment: as above; format: cell-based; conditions: Streptococcus pneumoniae; Str. pneumoniae A9585 (10^-3 dilution of overnight broth culture); 45% Antibiotic Assay Broth + 50% Nutrient Broth + 5% serum
Excerpt: (§2) *45% Antibiotic Assay Broth + 50% Nutrient Broth + 5% serum
(§3) **Dilution of overnight broth culture

Str. pyogenes = experiment: as above; format: cell-based; conditions: Streptococcus pyogenes; Str. pyogenes A9604 (10^-3); 45% Antibiotic Assay Broth + 50% Nutrient Broth + 5% serum
Excerpt: as §2, §3

[7] = Blood level in mice after intramuscular injection (Example 7); format: in vivo; conditions: mouse, im, intramuscularly, 10 mg./kg. of body weight, at 15 minutes
Method: The IR and NMR were consistent with the title product, but indicated about 20% impurities, primarily starting material. When this compound was administered intramuscularly by injection at a dose of 10 mg./kg. of body weight in mice, a blood level of […]. was obtained at 15 minutes.

S. aureus [8] = experiment: MIC by Tube Dilution Technique in Nutrient Broth (Example 9 table); format: cell-based; conditions: Staphylococcus aureus
Excerpt: (§4) MIC (mcg./ml.) by Tube Dilution Technique in Nutrient Broth.

E. coli [9] = experiment: as above; format: cell-based; conditions: Escherichia coli
Excerpt: as §4

D. pneumoniae = experiment: as above; format: cell-based; conditions: Streptococcus pneumoniae; Dp-4 D. pneumoniae A9585
Excerpt: as §4

P. aeruginosa = experiment: as above; format: cell-based; conditions: Pseudomonas aeruginosa; P. aeruginosa A9843
Excerpt: as §4

S. marcescens = experiment: as above; format: cell-based; conditions: Serratia marcescens; Sm-1 S. marcescens A20019
Excerpt: as §4

K. pneumoniae [10] = experiment: as above; format: cell-based; conditions: Klebsiella pneumoniae
Excerpt: as §4

P. morganii = experiment: as above; format: cell-based; conditions: Morganella morganii; Pg-8 P. morganii A15153
Excerpt: as §4

S. enteritidis = experiment: as above; format: cell-based; conditions: Salmonella enterica; Se-1 S. enteritidis A9531
Excerpt: as §4

P. mirabilis = experiment: as above; format: cell-based; conditions: Proteus mirabilis; Pm-2 P. mirabilis A9900
Excerpt: as §4

E. cloacae = experiment: as above; format: cell-based; conditions: Enterobacter cloacae; El-1 E. cloacae A9656
Excerpt: as §4

S. pyogenes = experiment: as above; format: cell-based; conditions: Streptococcus pyogenes; Sp-3 S. pyogenes A9604
Excerpt: as §4

Cn1nnnc1SCC1=C(C(=O)O)N2C(=O)[C@@H](NC(=O)Cc3ccccc3CN)[C@H]2SC1 [7-(o-aminomethylphenylacetamido)-3-(1-methyl-1,2,3,4-tetrazol-5-ylthiomethyl)-3-cephem-4-carboxylic acid]
lowest pH able to dissolve 150 mg./ml. ([1]; room temperature): 10.3 | solubility ([1]; solubility, in both buffered aqueous media and in dog urine at room temperature): 1 to 3 mg/mL (≈ 2100 to 6310 µM)

NCc1ccccc1CC(=O)N[C@@H]1C(=O)N2C(C(=O)O)=C(CSc3nnnn3CC(=O)O)CS[C@H]12 [Example 3]
solubility ([1]; water, Solubility in water): > 500 mg/mL | relative stability of the solid at elevated temperatures [2]: not as stable at elevated temperatures | loss of activity in solution ([3]; 125.0 mg./ml. at pH 7.0, room temperature, at least 24 hours): no significant loss | Stability in water (time stable) ([3]; room temperature at 250 mg./ml.): at least 24 hours

NCc1ccccc1CC(=O)N[C@@H]1C(=O)N2C(C(=O)O)=C(CSc3nnnn3CC(=O)O)CS[C@H]12 [BL-S786: L-Lysine Salt]
degraded at 730 h (physchem): < 10%

NCC1=C(CC(=O)N[C@@H]2C(=O)N3C(C(=O)O)=C(CSc4nnnn4CC(=O)O)CS[C@H]23)CC=CC1 [Example 2, 7-(2-Aminomethyl-1,4-cyclohexadienylacetamido)-3-(1-carboxymethyltetrazol-5-ylthiomethyl)-3-cephem-4-carboxylic acid]
MIC (S. aureus [4]; S. aureus BX1633 A9606 (10^-2)): 2.5 mg/L (≈ 4.79 µM) | MIC (S. aureus [4]; S. aureus BX1633 A9606 (10^-3)): 1.3 mg/L (≈ 2.49 µM) | MIC (S. aureus [4]; S. aureus Meth-Res A15097 (10^-3)): 4 mg/L (≈ 7.67 µM) | MIC (S. aureus [4]; S. aureus Smith A9537 (10^-4)): 0.5 mg/L (≈ 0.959 µM) | MIC (S. aureus [4]; S. aureus-50% serum A9537 (10^-4)): > 0.5 mg/L | MIC (E. coli [5]; E. coli A9675 (10^-4)): 16 mg/L (≈ 30.7 µM) | MIC (E. coli [5]; E. coli Juhl A15119 (10^-4)): 1.3 mg/L (≈ 2.49 µM) | MIC (Ps. aeruginosa): > 125 mg/L | MIC (K. pneumoniae [6]; K. pneumoniae A9977 (10^-4)): 0.3 mg/L (≈ 0.575 µM) | MIC (K. pneumoniae [6]; K. pneumoniae A15130 (10^-4)): 2 mg/L (≈ 3.83 µM) | MIC (Pr. mirabilis): 0.3 mg/L (≈ 0.575 µM) | MIC (Ent. cloacae; Ent. cloacae A9657 (10^-4)): 0.3 mg/L (≈ 0.575 µM) | MIC (Ent. cloacae; Ent. cloacae A9659 (10^-4)): 32 mg/L (≈ 61.4 µM) | MIC (Ent. cloacae; Ent. cloacae A9656 (10^-4)): > 125 mg/L | MIC (Pr. morganii): 8 mg/L (≈ 15.3 µM) | MIC (Ser. marcescens): > 125 mg/L | MIC (Sal. enteritidis): 0.16 mg/L (≈ 0.307 µM) | MIC (Str. pneumoniae): 0.06 mg/L | MIC (Str. pyogenes): 0.13 mg/L

NCc1ccccc1CC(=O)N[C@@H]1C(=O)N2C(C(=O)O)=C(CSc3nnnn3CC(=O)O)CS[C@H]12 [Example 8, Monosodium BL-S786 Dihydrate]
Solubility in water ([1]; water, Dihydrate): > 400 mg/mL | Stability of 250,000 unit/ml. solution ([3]; 24 hours at room temperature): No loss

NCc1ccccc1CC(=O)N[C@@H]1C(=O)N2C(C(=O)O)=C(CSc3nnnn3CCC(=O)O)CS[C@H]12 [Example 7, 7-(2-aminomethylphenylacetamido)-3-(1-carboxyethyltetrazol-5-ylthiomethyl)-3-cephem-4-carboxylic acid]
concentration at 0.25 h [7]: 22300 µg/mL

CNCc1ccsc1CC(=O)N[C@@H]1C(=O)N2C(C(=O)O)=C(CSc3nnnn3CC(=O)O)CS[C@H]12 [Example 9, 7-(3-N-methylaminomethyl-2-thienylacetamido)-3-(1-carboxymethyltetrazol-5-ylthiomethyl)-3-cephem-4-carboxylic Acid]
MIC (S. aureus [8]; Sa-2 S. aureus +50% serum): 3.1 mg/L (≈ 5.74 µM) | MIC (S. aureus [8]; Sa-2 S. aureus Smith A9537): 3.1 mg/L (≈ 5.74 µM) | MIC (S. aureus [8]; Sa-11 S. aureus BX-1633 A9606): 6.3 mg/L (≈ 11.7 µM) | MIC (S. aureus [8]; Sa-44 S. aureus A15097): 12.5 mg/L (≈ 23.2 µM) | MIC (E. coli [9]; Ec-1 E. coli NIHJ): 0.8 mg/L (≈ 1.48 µM) | MIC (E. coli [9]; Ec-3 E. coli Juhl A15119): 0.8 mg/L (≈ 1.48 µM) | MIC (E. coli [9]; Ec-58 E. coli A9675): 12.5 mg/L (≈ 23.2 µM) | MIC (D. pneumoniae): 0.08 mg/L (≈ 0.148 µM) | MIC (P. aeruginosa): > 100 mg/L | MIC (S. marcescens): > 100 mg/L | MIC (K. pneumoniae [10]; Kp-3 K. pneumoniae A9977): 0.2 mg/L (≈ 0.371 µM) | MIC (K. pneumoniae [10]; Kp-4 K. pneumoniae A15130): 1.6 mg/L (≈ 2.97 µM) | MIC (P. morganii): 12.5 mg/L (≈ 23.2 µM) | MIC (S. enteritidis): 0.2 mg/L (≈ 0.371 µM) | MIC (P. mirabilis): 0.4 mg/L (≈ 0.741 µM) | MIC (E. cloacae): 50 mg/L (≈ 92.7 µM) | MIC (S. pyogenes): 0.08 mg/L (≈ 0.148 µM)

Cn1nnnc1SCC1=C(C(=O)O)N2C(=O)[C@@H](NC(=O)[C@H](O)c3ccccc3)[C@H]2SC1 [Cefamandole]
MIC (S. aureus [8]; Sa-2 S. aureus +50% serum): 1.6 mg/L (≈ 3.46 µM) | MIC (S. aureus [8]; Sa-2 S. aureus Smith A9537): 0.8 mg/L (≈ 1.73 µM) | MIC (S. aureus [8]; Sa-11 S. aureus BX-1633 A9606): 1.6 mg/L (≈ 3.46 µM) | MIC (S. aureus [8]; Sa-44 S. aureus A15097): 3.1 mg/L (≈ 6.7 µM) | MIC (E. coli [9]; Ec-1 E. coli NIHJ): 1.6 mg/L (≈ 3.46 µM) | MIC (E. coli [9]; Ec-3 E. coli Juhl A15119): 0.8 mg/L (≈ 1.73 µM) | MIC (E. coli [9]; Ec-58 E. coli A9675): 3.1 mg/L (≈ 6.7 µM) | MIC (D. pneumoniae): 0.08 mg/L (≈ 0.173 µM) | MIC (P. aeruginosa): > 100 mg/L | MIC (S. marcescens): > 100 mg/L | MIC (K. pneumoniae [10]; Kp-3 K. pneumoniae A9977): 0.8 mg/L (≈ 1.73 µM) | MIC (K. pneumoniae [10]; Kp-4 K. pneumoniae A15130): 6.3 mg/L (≈ 13.6 µM) | MIC (P. morganii): 3.1 mg/L (≈ 6.7 µM) | MIC (S. enteritidis): 0.4 mg/L (≈ 0.865 µM) | MIC (P. mirabilis): 0.8 mg/L (≈ 1.73 µM) | MIC (E. cloacae): 50 mg/L (≈ 108 µM) | MIC (S. pyogenes): 0.08 mg/L (≈ 0.173 µM)

— patent US4100346A, “Certain 7(o-amino-methyl- or methylaminomethylphenyl- or cyclohexadienyl- or thienylacetamide)-3[1-carboxymethyl-(or ethyl- or propyl-)-tetrazol-5-ylthiomethyl]-3-cephem-4-carboxylic acids” (Bristol-Myers Company, priority 1976, dated 1978)
